Legend:
Bile salt export pump = Bile salt export pump (Homo sapiens, UniProt O95342); experiment: Inhibition of human BSEP overexpressed in Sf9 cell membrane vesicles assessed as uptake of [3H]-taurocholate in presence of ATP measured after 15 to 20 mins by membrane vesicle transport assay; type: ADME, cell-based
[1] = molecular target: ATP-binding cassette sub-family C member 2 (Homo sapiens, UniProt Q92887); experiment: Inhibition of human MRP2 overexpressed in Sf9 cell membrane vesicles assessed as uptake of [3H]-estradiol-17beta-D-glucuronide in presence of ATP and GSH measured after 20 mins by membrane vesicle transport assay
Chain of ATP-binding cassette sub-family C member 2 (Q92887 whole entry): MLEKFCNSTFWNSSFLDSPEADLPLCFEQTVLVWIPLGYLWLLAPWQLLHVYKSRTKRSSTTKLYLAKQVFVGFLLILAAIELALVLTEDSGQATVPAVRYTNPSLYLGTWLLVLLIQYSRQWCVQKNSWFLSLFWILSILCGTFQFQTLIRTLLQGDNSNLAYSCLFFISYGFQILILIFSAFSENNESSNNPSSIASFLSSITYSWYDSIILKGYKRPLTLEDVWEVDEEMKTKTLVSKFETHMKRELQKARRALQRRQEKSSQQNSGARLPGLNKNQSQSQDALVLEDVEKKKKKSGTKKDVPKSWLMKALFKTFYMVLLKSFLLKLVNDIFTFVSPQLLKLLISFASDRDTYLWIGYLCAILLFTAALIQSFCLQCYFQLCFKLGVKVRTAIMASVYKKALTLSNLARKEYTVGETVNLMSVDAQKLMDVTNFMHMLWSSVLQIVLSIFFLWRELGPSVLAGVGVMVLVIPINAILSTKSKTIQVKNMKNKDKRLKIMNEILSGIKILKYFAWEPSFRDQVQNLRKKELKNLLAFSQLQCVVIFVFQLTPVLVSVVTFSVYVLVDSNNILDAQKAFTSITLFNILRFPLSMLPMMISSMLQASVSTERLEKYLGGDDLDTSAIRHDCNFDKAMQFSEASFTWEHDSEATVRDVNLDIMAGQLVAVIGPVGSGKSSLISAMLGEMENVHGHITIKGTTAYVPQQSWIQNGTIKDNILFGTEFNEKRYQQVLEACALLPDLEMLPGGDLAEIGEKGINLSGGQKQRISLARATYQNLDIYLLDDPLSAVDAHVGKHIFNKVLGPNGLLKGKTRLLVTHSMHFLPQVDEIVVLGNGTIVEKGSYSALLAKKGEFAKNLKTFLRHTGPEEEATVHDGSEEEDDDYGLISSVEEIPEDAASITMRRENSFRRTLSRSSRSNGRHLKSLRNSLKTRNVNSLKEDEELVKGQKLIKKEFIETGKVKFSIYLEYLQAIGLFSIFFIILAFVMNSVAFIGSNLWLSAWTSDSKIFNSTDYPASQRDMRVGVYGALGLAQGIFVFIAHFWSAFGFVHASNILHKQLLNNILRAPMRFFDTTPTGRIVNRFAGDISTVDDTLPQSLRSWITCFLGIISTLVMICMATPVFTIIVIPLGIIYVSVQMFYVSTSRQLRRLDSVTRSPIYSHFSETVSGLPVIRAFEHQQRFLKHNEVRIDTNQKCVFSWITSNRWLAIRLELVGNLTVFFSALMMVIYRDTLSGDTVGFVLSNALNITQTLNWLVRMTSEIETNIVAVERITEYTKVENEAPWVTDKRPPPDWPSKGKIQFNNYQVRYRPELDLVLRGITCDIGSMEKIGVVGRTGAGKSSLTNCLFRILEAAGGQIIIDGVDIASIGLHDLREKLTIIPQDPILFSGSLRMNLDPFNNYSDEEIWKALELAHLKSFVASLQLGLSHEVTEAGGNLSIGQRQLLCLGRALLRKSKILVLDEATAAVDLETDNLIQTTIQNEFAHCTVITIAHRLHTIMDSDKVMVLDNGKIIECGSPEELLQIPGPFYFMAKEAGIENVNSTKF

[2] = molecular target: ATP-binding cassette sub-family C member 3 (Homo sapiens, UniProt O15438); experiment: Inhibition of human MRP3 overexpressed in Sf9 insect cell membrane vesicles assessed as uptake of [3H]-estradiol-17beta-D-glucuronide in presence of ATP and GSH measured after 10 mins by membrane vesicle transport assay; type: ADME, cell-based
Chain of ATP-binding cassette sub-family C member 3 (O15438 whole entry): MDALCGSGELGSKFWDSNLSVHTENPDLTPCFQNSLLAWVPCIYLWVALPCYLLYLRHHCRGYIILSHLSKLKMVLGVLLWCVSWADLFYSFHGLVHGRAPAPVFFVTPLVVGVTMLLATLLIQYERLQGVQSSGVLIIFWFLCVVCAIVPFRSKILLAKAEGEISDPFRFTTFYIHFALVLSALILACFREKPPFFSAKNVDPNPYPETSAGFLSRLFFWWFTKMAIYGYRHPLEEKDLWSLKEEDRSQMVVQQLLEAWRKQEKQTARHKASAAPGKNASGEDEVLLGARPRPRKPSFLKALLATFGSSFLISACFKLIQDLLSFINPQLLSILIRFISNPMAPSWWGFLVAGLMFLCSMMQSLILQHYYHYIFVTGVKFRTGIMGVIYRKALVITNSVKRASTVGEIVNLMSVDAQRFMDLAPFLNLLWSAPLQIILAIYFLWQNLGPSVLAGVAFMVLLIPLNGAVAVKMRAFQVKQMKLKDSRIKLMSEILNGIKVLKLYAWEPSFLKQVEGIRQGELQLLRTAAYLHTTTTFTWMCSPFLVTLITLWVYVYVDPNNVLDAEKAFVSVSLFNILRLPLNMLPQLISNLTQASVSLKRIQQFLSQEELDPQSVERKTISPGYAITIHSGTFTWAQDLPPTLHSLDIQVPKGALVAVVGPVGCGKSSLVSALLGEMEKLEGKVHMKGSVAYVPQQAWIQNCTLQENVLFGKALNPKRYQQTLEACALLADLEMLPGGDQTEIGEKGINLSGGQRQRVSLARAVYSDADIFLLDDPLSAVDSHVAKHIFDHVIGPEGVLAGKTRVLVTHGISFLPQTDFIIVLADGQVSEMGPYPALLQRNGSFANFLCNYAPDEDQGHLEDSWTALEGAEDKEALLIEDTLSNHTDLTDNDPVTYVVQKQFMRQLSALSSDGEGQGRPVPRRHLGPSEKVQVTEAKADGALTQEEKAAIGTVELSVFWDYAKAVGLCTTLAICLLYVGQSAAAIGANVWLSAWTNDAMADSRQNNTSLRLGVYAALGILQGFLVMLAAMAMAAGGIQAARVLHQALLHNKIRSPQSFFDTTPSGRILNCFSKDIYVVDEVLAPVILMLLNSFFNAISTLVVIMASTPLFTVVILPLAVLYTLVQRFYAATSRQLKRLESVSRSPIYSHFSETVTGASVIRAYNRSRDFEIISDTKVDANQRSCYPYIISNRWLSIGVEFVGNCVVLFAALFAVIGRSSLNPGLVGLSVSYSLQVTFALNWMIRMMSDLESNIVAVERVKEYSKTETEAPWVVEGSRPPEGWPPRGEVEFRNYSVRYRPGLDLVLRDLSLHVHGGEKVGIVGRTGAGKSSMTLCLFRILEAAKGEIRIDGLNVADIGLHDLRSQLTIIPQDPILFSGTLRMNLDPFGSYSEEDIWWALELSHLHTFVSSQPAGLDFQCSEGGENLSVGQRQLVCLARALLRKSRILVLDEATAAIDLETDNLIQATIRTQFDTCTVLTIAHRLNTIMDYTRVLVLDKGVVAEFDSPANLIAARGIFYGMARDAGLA

[3] = molecular target: T1, ATP-binding cassette sub-family C member 4 (Homo sapiens, UniProt O15439); experiment: Inhibition of human MRP4 overexpressed in Sf9 cell membrane vesicles assessed as uptake of [3H]-estradiol-17beta-D-glucuronide in presence of ATP and GSH measured after 20 mins by membrane vesicle transport assay; type: ADME, cell-based
T1 sequence (O15439 whole entry): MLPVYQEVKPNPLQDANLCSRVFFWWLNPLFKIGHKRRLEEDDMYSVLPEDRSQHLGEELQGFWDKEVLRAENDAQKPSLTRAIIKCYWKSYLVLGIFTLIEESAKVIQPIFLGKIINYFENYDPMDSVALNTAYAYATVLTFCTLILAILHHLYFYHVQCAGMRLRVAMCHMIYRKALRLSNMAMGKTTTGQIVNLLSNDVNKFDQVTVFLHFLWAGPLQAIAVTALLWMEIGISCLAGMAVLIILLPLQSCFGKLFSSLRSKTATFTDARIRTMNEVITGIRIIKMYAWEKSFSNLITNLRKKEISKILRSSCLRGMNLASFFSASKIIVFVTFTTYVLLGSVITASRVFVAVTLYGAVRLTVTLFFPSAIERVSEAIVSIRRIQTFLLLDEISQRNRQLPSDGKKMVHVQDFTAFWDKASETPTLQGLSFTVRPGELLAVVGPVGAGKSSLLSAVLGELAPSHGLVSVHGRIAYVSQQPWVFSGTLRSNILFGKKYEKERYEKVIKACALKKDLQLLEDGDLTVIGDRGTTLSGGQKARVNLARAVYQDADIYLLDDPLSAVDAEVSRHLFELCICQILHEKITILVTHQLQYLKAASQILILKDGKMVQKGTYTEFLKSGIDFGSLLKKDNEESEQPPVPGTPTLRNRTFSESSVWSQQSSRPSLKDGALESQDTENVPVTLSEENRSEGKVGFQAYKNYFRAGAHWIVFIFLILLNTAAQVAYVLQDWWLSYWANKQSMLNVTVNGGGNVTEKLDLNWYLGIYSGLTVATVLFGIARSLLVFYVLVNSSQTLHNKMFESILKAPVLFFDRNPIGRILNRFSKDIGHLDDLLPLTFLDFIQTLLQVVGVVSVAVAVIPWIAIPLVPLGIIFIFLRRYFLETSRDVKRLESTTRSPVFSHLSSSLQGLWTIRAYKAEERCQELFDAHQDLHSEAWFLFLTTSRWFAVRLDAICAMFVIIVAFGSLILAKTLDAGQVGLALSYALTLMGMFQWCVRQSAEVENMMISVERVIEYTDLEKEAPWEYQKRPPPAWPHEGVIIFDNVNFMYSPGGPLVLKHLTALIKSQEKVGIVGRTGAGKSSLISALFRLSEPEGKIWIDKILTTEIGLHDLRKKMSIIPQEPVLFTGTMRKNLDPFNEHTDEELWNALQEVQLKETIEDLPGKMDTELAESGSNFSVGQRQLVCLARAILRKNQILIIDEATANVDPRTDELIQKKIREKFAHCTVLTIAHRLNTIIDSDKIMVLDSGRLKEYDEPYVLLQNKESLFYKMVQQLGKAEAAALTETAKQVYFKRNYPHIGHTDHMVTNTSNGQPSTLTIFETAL

[4] = AUC in human at 400 to 800 mg, po QD after 24 hrs; type: ADME, organism-based; conditions: in vivo
[5] = Drug concentration at steady state in human at 400 to 800 mg, po QD after 24 hrs; type: ADME, organism-based; conditions: in vivo, read-out: Css
[6] = Ratio of drug concentration at steady state in human at 400 to 800 mg, po QD after 24 hrs to IC50 for human BSEP overexpressed in Sf9 insect cells; type: ADME, organism-based; conditions: in vivo
[7] = AUC in human at 300 to 600 mg, po QD after 24 hrs; type: ADME, organism-based; conditions: in vivo
[8] = Drug concentration at steady state in human at 300 to 600 mg, po QD after 24 hrs; type: ADME, organism-based; conditions: in vivo, read-out: Css
[9] = Ratio of drug concentration at steady state in human at 300 to 600 mg, po QD after 24 hrs to IC50 for human BSEP overexpressed in Sf9 insect cells; type: ADME, organism-based; conditions: in vivo
[10] = Ratio of drug concentration at steady state in human at 300 to 600 mg, po QD after 24 hrs to IC50 for human MRP4 overexpressed in Sf9 insect cells; type: ADME, organism-based; conditions: in vivo
[11] = Ratio of drug concentration at steady state in human at 20 to 40 mg, po QD after 24 hrs to IC50 for human BSEP overexpressed in Sf9 insect cells; type: ADME, organism-based; conditions: in vivo
[12] = Ratio of drug concentration at steady state in human at 20 to 40 mg, po QD after 24 hrs to IC50 for human MRP3 overexpressed in Sf9 insect cells; type: ADME, organism-based; conditions: in vivo
[13] = Ratio of drug concentration at steady state in human at 20 to 40 mg, po QD after 24 hrs to IC50 for human MRP4 overexpressed in Sf9 insect cells; type: ADME, organism-based; conditions: in vivo
[14] = AUC in human at 20 to 25 mg/kg, po TID after 8 hrs; type: ADME, organism-based; conditions: in vivo
[15] = Drug concentration at steady state in human at 20 to 25 mg/kg, po TID after 8 hrs; type: ADME, organism-based; conditions: in vivo, read-out: Css
[16] = Ratio of drug concentration at steady state in human at 20 to 25 mg/kg, po TID after 8 hrs to IC50 for human BSEP overexpressed in Sf9 insect cells; type: ADME, organism-based; conditions: in vivo
[17] = AUC in human at 20 to 100 mg, po QD or 60 mg, po BID after 12 hrs; type: ADME, organism-based; conditions: in vivo
[18] = Drug concentration at steady state in human at 20 to 100 mg, po QD or 60 mg, po BID after 12 hrs; type: ADME, organism-based; conditions: in vivo, read-out: Css
[19] = Ratio of drug concentration at steady state in human at 20 to 100 mg, po QD or 60 mg, po BID after 12 hrs to IC50 for human BSEP overexpressed in Sf9 insect cells; type: ADME, organism-based; conditions: in vivo
[20] = AUC in human at 2 to 8 mg, po QD after 24 hrs; type: ADME, organism-based; conditions: in vivo
[21] = Drug concentration at steady state in human at 2 to 8 mg, po QD after 24 hrs; type: ADME, organism-based; conditions: in vivo, read-out: Css
[22] = Ratio of drug concentration at steady state in human at 2 to 8 mg, po QD after 24 hrs to IC50 for human BSEP overexpressed in Sf9 insect cells; type: ADME, organism-based; conditions: in vivo
[23] = Ratio of drug concentration at steady state in human at 2 to 8 mg, po QD after 24 hrs to IC50 for human MRP4 overexpressed in Sf9 insect cells; type: ADME, organism-based; conditions: in vivo

Chain of Bile salt export pump (O95342 whole entry): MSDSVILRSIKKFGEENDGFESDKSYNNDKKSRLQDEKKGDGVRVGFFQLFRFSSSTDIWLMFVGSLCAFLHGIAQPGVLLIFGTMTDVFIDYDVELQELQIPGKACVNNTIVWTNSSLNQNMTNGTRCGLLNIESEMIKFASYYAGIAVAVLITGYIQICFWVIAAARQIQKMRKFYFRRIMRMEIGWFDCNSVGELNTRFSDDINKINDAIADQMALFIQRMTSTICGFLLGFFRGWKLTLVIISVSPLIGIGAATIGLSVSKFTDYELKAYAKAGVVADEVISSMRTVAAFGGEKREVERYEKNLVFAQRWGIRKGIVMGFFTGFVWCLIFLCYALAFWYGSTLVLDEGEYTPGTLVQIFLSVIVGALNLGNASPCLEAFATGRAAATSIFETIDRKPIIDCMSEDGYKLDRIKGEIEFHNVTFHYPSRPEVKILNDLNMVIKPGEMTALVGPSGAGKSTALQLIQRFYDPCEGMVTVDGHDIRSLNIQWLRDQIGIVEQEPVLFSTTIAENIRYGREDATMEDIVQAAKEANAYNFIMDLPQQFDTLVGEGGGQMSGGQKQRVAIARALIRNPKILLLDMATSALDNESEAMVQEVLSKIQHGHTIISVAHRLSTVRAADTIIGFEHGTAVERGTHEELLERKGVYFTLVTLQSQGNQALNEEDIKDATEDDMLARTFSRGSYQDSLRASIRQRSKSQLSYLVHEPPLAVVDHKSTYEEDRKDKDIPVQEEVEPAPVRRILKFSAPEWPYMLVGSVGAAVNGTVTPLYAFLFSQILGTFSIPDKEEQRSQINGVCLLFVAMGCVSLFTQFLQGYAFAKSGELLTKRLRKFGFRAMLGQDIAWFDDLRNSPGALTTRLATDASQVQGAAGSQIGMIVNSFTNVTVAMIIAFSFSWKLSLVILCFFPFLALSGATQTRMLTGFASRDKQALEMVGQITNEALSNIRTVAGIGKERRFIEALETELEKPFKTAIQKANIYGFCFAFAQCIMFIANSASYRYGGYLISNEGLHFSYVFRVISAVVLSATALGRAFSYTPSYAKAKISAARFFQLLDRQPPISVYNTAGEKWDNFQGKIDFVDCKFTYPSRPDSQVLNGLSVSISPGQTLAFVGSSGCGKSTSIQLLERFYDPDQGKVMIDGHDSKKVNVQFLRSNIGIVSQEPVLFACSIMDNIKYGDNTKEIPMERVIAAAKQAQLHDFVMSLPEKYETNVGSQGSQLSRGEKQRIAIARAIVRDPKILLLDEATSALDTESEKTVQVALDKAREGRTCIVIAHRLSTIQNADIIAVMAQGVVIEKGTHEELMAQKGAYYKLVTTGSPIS

| Structure (SMILES) | IC50 (Bile salt export pump) [µM] | IC50 [1] [µM] | IC50 [2] [µM] | IC50 [3] [µM] | also measured |
| --- | --- | --- | --- | --- | --- |
| CC(=O)O[C@]1(C(C)=O)CC[C@H]2[C@@H]3C=C(C)C4=CC(=O)CC[C@]4(C)[C@H]3CC[C@@]21C [MEGESTROL ACETATE] | 17.8 | > 133 | > 133 | > 133 | AUC at 24 h [4]: 35.8 µM·h; concentration at 24 h [5]: 1490 nM; Ratio [6]: 0.084 |
| CCc1nn(CCCN2CCN(c3cccc(Cl)c3)CC2)c(=O)n1CCOc1ccccc1 [NEFAZODONE] | – | > 133 | > 133 | 71 | AUC at 24 h [7]: 14.5 µM·h; concentration at 24 h [8]: 604 nM; Ratio [9]: 0.099; Ratio [10]: 0.009 |
| CCCc1nc(C(C)(C)O)c(C(=O)OCc2oc(=O)oc2C)n1Cc1ccc(-c2ccccc2-c2nnn[nH]2)cc1 [OLMESARTAN MEDOXOMIL] | 4.73 | – | 2 | 28.5 | Ratio [11]: 0.081; Ratio [12]: 0.192; Ratio [13]: 0.014 |
| O=C(C1CCCCC1)N1CC(=O)N2CCc3ccccc3C2C1 (stereo unspecified) [PRAZIQUANTEL] | 67.1 | > 133 | > 133 | > 133 | AUC at 8 h [14]: 50.4 µM·h; concentration at 8 h [15]: 6300 nM; Ratio [16]: 0.094 |
| COCCCOc1ccnc(C[S+]([O-])c2nc3ccccc3[n-]2)c1C.[Na+] (stereo unspecified) [RABEPRAZOLE SODIUM] | 33.9 | > 133 | > 133 | > 133 | AUC at 12 h [17]: 14.5 µM·h; concentration at 12 h [18]: 1210 nM; Ratio [19]: 0.036 |
| CN(CCOc1ccc(CC2SC(=O)NC2=O)cc1)c1ccccn1 (stereo unspecified) [ROSIGLITAZONE] | 2.8 | – | > 133 | 21 | AUC at 24 h [20]: 8.02 µM·h; concentration at 24 h [21]: 334 nM; Ratio [22]: 0.119; Ratio [23]: 0.016 |

Reference: ChEMBL document CHEMBL4028801, “A multifactorial approach to hepatobiliary transporter assessment enables improved therapeutic compound development” (Toxicol Sci, 2013)
